Measured values as given in patent US10988524B2, “Modified relaxin B chain peptides and their therapeutic use” (priority 2018, dated 2021).
≈ marks a conversion by molar mass, not a printed value. Read-outs that look alike come from different tables or passages of the source. Non-standard residues stand in square brackets, D forms with d. Residues, ends and D or L forms follow the SMILES beside them. Nle = CCCC[C@H](N)C(=O)O; Aib = CC(C)(N)C(=O)O

Legend:
[1] = Stability in human plasma; format: in vitro ADME; conditions: 37° C.
Method: (§1) Prior to the testing of stability in plasma of a peptide batch, its purity (HPLC-UV) was determined.
(§2) Rat and Human plasma: anti-coagulant sodium or lithium heparin.
(§3) 100 μM solution of study compound in 50 mM Phosphate buffer pH 7.4.
(§4) 950 μL plasma is pre-incubated for 5 min at 37° C. 50 μL of compound stock solution is added. Final compound concentration=5 μM. Vortex and transfer 1504, plasma into an Eppendorf for each time point. The time points 0-1 and −4 h are carried out in duplicate for each species.
(§5) After incubation extract 1504, plasma with 6004, Acetonitrile containing with 1% TFA. Vortex and centrifuge 10 min at 14600 rpm. Dry 2004, supernatant under N2. Reconstitute sample in 200 μL of H2O/CH3CN 98/2+0.1% FA+50 ng/ml Labetalol and analyze using the analytical system used in solubility and stability studies.
(§6) For determination of the amount of the remaining peptide, the peak areas of the target compound at t0 and each time point […] were compared, resulting in “% remaining peptide”, following the equation
(§7) % remaining peptide=[(peak area peptide time)×100]/peak area peptide t0. The stability is expressed as “% remaining peptide”.

Stability in rat plasma = format: in vitro ADME; conditions: 37° C.
Method: as §1, §2, §3, §4, §5, §6, §7

[2] = Solubility testing of peptides in buffer; format: physicochemical
RXFP1 = biological target: T1, RXFP1 (Homo sapiens, UniProt Q9HBX9); test: OVCAR5 cAMP assay (RXFP1 agonist activity, HTRF)
T1 sequence (Q9HBX9 1-757): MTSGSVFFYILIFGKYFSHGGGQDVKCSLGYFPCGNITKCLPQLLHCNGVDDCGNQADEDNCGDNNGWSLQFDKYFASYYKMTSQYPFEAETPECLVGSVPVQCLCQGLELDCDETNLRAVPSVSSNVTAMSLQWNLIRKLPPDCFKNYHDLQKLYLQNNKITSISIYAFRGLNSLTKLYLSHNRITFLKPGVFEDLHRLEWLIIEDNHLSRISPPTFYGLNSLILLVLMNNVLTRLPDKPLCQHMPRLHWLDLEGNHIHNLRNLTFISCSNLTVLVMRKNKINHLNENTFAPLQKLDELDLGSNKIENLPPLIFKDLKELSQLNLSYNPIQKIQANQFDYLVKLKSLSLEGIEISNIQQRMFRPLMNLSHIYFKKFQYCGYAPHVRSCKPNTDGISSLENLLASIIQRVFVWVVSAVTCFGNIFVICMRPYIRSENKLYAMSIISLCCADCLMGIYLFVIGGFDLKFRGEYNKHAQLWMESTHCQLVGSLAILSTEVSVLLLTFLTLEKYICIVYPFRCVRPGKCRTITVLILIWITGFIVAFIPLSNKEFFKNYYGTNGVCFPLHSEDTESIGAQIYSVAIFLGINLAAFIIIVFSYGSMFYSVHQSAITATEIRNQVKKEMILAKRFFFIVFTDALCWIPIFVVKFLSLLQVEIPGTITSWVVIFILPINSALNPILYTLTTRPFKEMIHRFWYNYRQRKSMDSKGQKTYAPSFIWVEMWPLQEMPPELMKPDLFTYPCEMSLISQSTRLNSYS

Human Plasma stability % remaining, T = 0 ([1]; 5 μM, T = 0): 100%
remaining at 1 h, 5 μM ([1]; human plasma (sodium or lithium heparin), 1 h): 93%
remaining at 4 h, 5 μM ([1]; human plasma (sodium or lithium heparin), 4 h): 74%
Rat plasma stability % remaining, T = 0 (Stability in rat plasma; 5 μM, T = 0): 100%
remaining at 1 h, 5 μM (Stability in rat plasma; rat plasma (sodium or lithium heparin), 1 h): 86%
remaining at 4 h, 5 μM (Stability in rat plasma; rat plasma (sodium or lithium heparin), 4 h): 60%
solubility ([2]; acetate buffer, pH 4.5, read-out: Solubility Acetate buffer pH 4.5): 4000 µg/mL (≈ 1400 µM)
solubility ([2]; phosphate buffer, pH 7.4, read-out: Solubility phosphate buffer pH 7.4): 4000 µg/mL (≈ 1400 µM)
Emax (RXFP1; OVCAR-5, read-out: cAMP assay in OVCAR 5 cells Emax, maximal intracellular cAMP relative to H2-relaxin in the same test occasion): 98%
EC50 (RXFP1; cAMP assay in OVCAR 5 cells EC50 (nM), OVCAR5 cells expressing endogenous RXFP1, cAMP by HTRF, 30 min at 37° C., 1 mM IBMX): ≤ 10 nM
Structure (SMILES): CCCC[C@H](NC(=O)CNC(=O)[C@H](CCC(=O)O)NC(=O)C(C)(C)NC(=O)C(C)(C)NC(=O)[C@@H](NC(=O)[C@H](CCCCNC(C)=O)NC(=O)[C@H](C)NC(=O)[C@H](CCCNC(=N)N)NC(=O)[C@@H](NC(=O)[C@H](CCCCN)NC(=O)[C@H](CCC(=O)O)NC(=O)[C@H](CCCNC(=N)N)NC(=O)CNC(=O)[C@H](CCC(=O)O)NC(=O)[C@H](CC(C)C)NC(C)=O)C(C)C)[C@@H](C)CC)C(=O)N[C@@H](CO)C(=O)N[C@H](C(=O)N[C@@H](Cc1c[nH]c2ccccc12)C(=O)N[C@@H](CO)C(=O)NC(C)(C)C(=O)N[C@@H](CCCNC(=N)N)C(=O)N[C@@H](CCCCN)C(=O)N[C@@H](CCCCNC(C)=O)C(N)=O)[C@@H](C)O [compound 5] (Ac-LEGREKVRAK(Ac)I[Aib][Aib]EG[Nle]STWS[Aib]RKK(Ac)-NH2)
